Numbers after ± are expanded uncertainties.
Test: activity coefficient (dimensionless); of the first substance listed, at infinite dilution; xn = mol fraction of the nth substance listed
Details: Liquid, Chromatography, x1 = 0

SMILES	activity coefficient (323.15 K)	activity coefficient (333.15 K)	activity coefficient (343.15 K)
CC#N [acetonitrile] + CN(C)c1cc[n+](COCCCOC[n+]2ccc(N(C)C)cc2)cc1.O=S(=O)([N-]S(=O)(=O)C(F)(F)F)C(F)(F)F.O=S(=O)([N-]S(=O)(=O)C(F)(F)F)C(F)(F)F	0.37 ± 0.03	0.37 ± 0.03	0.37 ± 0.03
c1ccccc1 [benzene] + N#C[N-]C#N.N#C[N-]C#N.c1ccc(Cn2cc[n+](COCCCOC[n+]3ccn(Cc4ccccc4)c3)c2)cc1	3.09 ± 0.21	2.95 ± 0.2	2.92 ± 0.2
CCCCCC [hexane] + Cn1cc[n+](COCCCOC[n+]2ccn(C)c2)c1.O=S(=O)([N-]S(=O)(=O)C(F)(F)F)C(F)(F)F.O=S(=O)([N-]S(=O)(=O)C(F)(F)F)C(F)(F)F	18.2 ± 1.2	31 ± 2.1	
c1ccncc1 [pyridine] + CCCOC[n+]1ccn(Cc2ccccc2)c1.F[B-](F)(F)F	0.6 ± 0.04	0.61 ± 0.04	0.65 ± 0.04
CCC(=O)CC [pentan-3-one] + CCCOC[n+]1ccn(Cc2ccccc2)c1.N#C[N-]C#N	1.33 ± 0.09	1.4 ± 0.09	1.43 ± 0.09
C[N+](=O)[O-] [nitromethane] + Cn1cc[n+](COCCCOC[n+]2ccn(C)c2)c1.N#C[N-]C#N.N#C[N-]C#N	0.56 ± 0.04	0.56 ± 0.04	0.57 ± 0.04
Cc1cccc(C)c1 [1,3-dimethylbenzene] + N#C[N-]C#N.N#C[N-]C#N.c1ccc(Cn2cc[n+](COCCCOC[n+]3ccn(Cc4ccccc4)c3)c2)cc1	8.85 ± 0.6	8.51 ± 0.58	8.32 ± 0.57
CC(C)CO [2-methyl-1-propanol] + CCCCCCCCn1cc[n+](COCCC)c1C.O=S(=O)([N-]S(=O)(=O)C(F)(F)F)C(F)(F)F	1.21 ± 0.08	1.09 ± 0.07	1.03 ± 0.06
C[N+](=O)[O-] [nitromethane] + CCCOC[n+]1ccn(C)c1.N#C[N-]C#N	0.69 ± 0.05	0.7 ± 0.05	0.73 ± 0.05
CCCCO [butan-1-ol] + CCCCCCCCn1cc[n+](COCCC)c1C.O=S(=O)([N-]S(=O)(=O)C(F)(F)F)C(F)(F)F	5.47 ± 0.37	4.33 ± 0.3	4.28 ± 0.29
Cc1ccc(C)cc1 [1,4-dimethylbenzene] + CCCCCCCCn1cc[n+](COCCCOC[n+]2ccn(CCCCCCCC)c2C)c1C.N#C[N-]C#N.N#C[N-]C#N	1.34 ± 0.09	1.35 ± 0.09	1.36 ± 0.09
C1CCCCCC1 [cycloheptane] + CCCCCCCCn1cc[n+](COCCC)c1C.N#C[N-]C#N	15.7 ± 1.1		
CCCCCCCCCC [decane] + CCCOC[n+]1ccn(C)c1.F[B-](F)(F)F	635 ± 44	573 ± 39	500 ± 34
CCN(CC)CC [triethylamine] + CCCOC[n+]1ccn(Cc2ccccc2)c1.N#C[N-]C#N	9.22 ± 0.63		
C=CCCCC [hex-1-ene] + CN(C)c1cc[n+](COCCCOC[n+]2ccc(N(C)C)cc2)cc1.O=S(=O)([N-]S(=O)(=O)C(F)(F)F)C(F)(F)F.O=S(=O)([N-]S(=O)(=O)C(F)(F)F)C(F)(F)F	9.4 ± 0.64	8.7 ± 0.59	7.95 ± 0.54
CC(C)OC(C)C [diisopropyl ether] + CN(C)c1cc[n+](COCCCOC[n+]2ccc(N(C)C)cc2)cc1.O=S(=O)([N-]S(=O)(=O)C(F)(F)F)C(F)(F)F.O=S(=O)([N-]S(=O)(=O)C(F)(F)F)C(F)(F)F	5.9 ± 0.4	5.72 ± 0.39	5.65 ± 0.39

SMILES	activity coefficient (323.15 K)	activity coefficient (333.15 K)	activity coefficient (343.15 K)
CCCCCCCCCCC [undecane] + CCCOC[n+]1ccn(C)c1.O=S(=O)([N-]S(=O)(=O)C(F)(F)F)C(F)(F)F	89.7 ± 6.2	85.9 ± 5.9	75.3 ± 5.2
CCCCCCCCCCCC [dodecane] + CCCOC[n+]1ccn(C)c1.N#C[N-]C#N	802 ± 55	716 ± 49	639 ± 44
CCCCCCCC [octane] + CCCCCCCCn1cc[n+](COCCCOC[n+]2ccn(CCCCCCCC)c2C)c1C.O=S(=O)([N-]S(=O)(=O)C(F)(F)F)C(F)(F)F.O=S(=O)([N-]S(=O)(=O)C(F)(F)F)C(F)(F)F	5.97 ± 0.41	5.45 ± 0.37	5.08 ± 0.35
C1CCCCC1 [cyclohexane] + CN(C)c1cc[n+](COCCCOC[n+]2ccc(N(C)C)cc2)cc1.O=S(=O)([N-]S(=O)(=O)C(F)(F)F)C(F)(F)F.O=S(=O)([N-]S(=O)(=O)C(F)(F)F)C(F)(F)F	10.7 ± 0.73	9.32 ± 0.64	8.67 ± 0.59
CCCCCCCCCCC [undecane] + CCCOC[n+]1ccn(C)c1.F[B-](F)(F)F	911 ± 63	883 ± 61	780 ± 54
ClC(Cl)(Cl)Cl [tetrachloromethane] + CCCOC[n+]1ccn(C)c1.O=S(=O)([N-]S(=O)(=O)C(F)(F)F)C(F)(F)F	3 ± 0.2	3.05 ± 0.21	2.85 ± 0.19
Cc1cccc(C)c1 [1,3-dimethylbenzene] + CCCOC[n+]1ccn(Cc2ccccc2)c1.F[B-](F)(F)F	5.41 ± 0.37	4.91 ± 0.33	4.91 ± 0.33
CC(C)CO [2-methyl-1-propanol] + Cn1cc[n+](COCCCOC[n+]2ccn(C)c2)c1.O=S(=O)([N-]S(=O)(=O)C(F)(F)F)C(F)(F)F.O=S(=O)([N-]S(=O)(=O)C(F)(F)F)C(F)(F)F	1.87 ± 0.13	1.71 ± 0.11	1.5 ± 0.1
C1CCCCCC1 [cycloheptane] + CCCOC[n+]1ccc(N(C)C)cc1.O=S(=O)([N-]S(=O)(=O)C(F)(F)F)C(F)(F)F	18.6 ± 1.3	24.6 ± 1.7	31.7 ± 2.2
C=CCCCC [hex-1-ene] + Cn1cc[n+](COCCCOC[n+]2ccn(C)c2)c1.O=S(=O)([N-]S(=O)(=O)C(F)(F)F)C(F)(F)F.O=S(=O)([N-]S(=O)(=O)C(F)(F)F)C(F)(F)F	15.1 ± 1	10.1 ± 0.69	
c1ccncc1 [pyridine] + Cn1cc[n+](COCCCOC[n+]2ccn(C)c2)c1.O=S(=O)([N-]S(=O)(=O)C(F)(F)F)C(F)(F)F.O=S(=O)([N-]S(=O)(=O)C(F)(F)F)C(F)(F)F	0.4 ± 0.03	0.41 ± 0.03	0.41 ± 0.03
CCCCO [butan-1-ol] + CCCCCCCCn1cc[n+](COCCCOC[n+]2ccn(CCCCCCCC)c2C)c1C.O=S(=O)([N-]S(=O)(=O)C(F)(F)F)C(F)(F)F.O=S(=O)([N-]S(=O)(=O)C(F)(F)F)C(F)(F)F	0.84 ± 0.05	0.74 ± 0.05	0.69 ± 0.05
CCC(C)=O [butanone] + CCCOC[n+]1ccc(N(C)C)cc1.O=S(=O)([N-]S(=O)(=O)C(F)(F)F)C(F)(F)F	0.51 ± 0.04	0.49 ± 0.04	0.45 ± 0.04
CCCC(C)=O [pentan-2-one] + CCCOC[n+]1ccn(Cc2ccccc2)c1.O=S(=O)([N-]S(=O)(=O)C(F)(F)F)C(F)(F)F	0.46 ± 0.04	0.42 ± 0.04	0.4 ± 0.03
C#CCCCC [1-hexyne] + CCCOC[n+]1ccn(C)c1.N#C[N-]C#N	6.98 ± 0.48	7.6 ± 0.52	

Source: the NIST ThermoML archive (doi:10.1016/j.fluid.2014.11.020)
